Source: patent US20040071768A1, “Compositions and methods for treating cancer” (Inex Pharmaceuticals Corporation, priority 1999, published 2004)

Legend:
HT29 colon xenografts = assay: Multiple dose (q7dx3) anti-tumor activity, HT29 colon xenograft; settings: HT-29; for TF (tumor free animals at the end of study): n=6
Method: Female NCr nude mice were injected intravenously (q7dx3) via the lateral tail vein on days indicated by an asterisk (*). […] Drug-to-lipid ratio was 0.3/1 (w/w). Data points represent median tumor volume (n=6).
(§1) The anti-tumor activity of multiple (q7d3) dose schedules of liposomal vinorelbine was evaluated in several human xenograft tumor models. The goal of this series of studies was to identify the benefits of encapsulation by evaluating a series of doses and determining the therapeutic index in several xenograft models. Models were selected based on the following criteria: (1) activity in the single dose studies, (2) a comprehensive literature review of vinca alkaloid efficacy, (3) a desire to include at least 2-3 models that represent the clinical use of vinorelbine, and (4) a desire to include models with a range of sensitivity to vinorelbine so that improvements resulting from the use of the liposome formulation might be identified. Based on these criteria, MX-1 and MDA-MB-435 breast models, the NCl-H460 NSCLC model and the HT-29 and DLD-1 colon models were chosen.
(§2) Therapeutic index (TI) is a parameter that quantifies the “safety factor” of a particular therapy. TI is a ratio of a toxicity parameter and a biological activity parameter. Therefore, a higher ratio represents a greater potential margin of safety. For these studies, TI is defined as follows: […]
(§3) The minimal effective dose (MED) was set according to NCl activity criteria as the dose resulting in an optimal % T/C of 40. This information was derived from Table 7.

[1] = Vinorelbine tolerability, multiple dosing (q7d x 3), nude mice; assay type: in vivo, NCr nu/nu mice; settings: Nudes
Method: Single and multiple (q7dx3) dose MTD studies were performed in tumor-bearing and non-tumor bearing NCr nu/nu mice, as well as healthy, outbred ICR mice.

[2] = test system: LX-1 small cell lung xenografts; assay: Single dose anti-tumor activity, LX-1 small cell lung xenograft; assay type: in vivo
Method: Female NCr nude mice were injected intravenously via the lateral tail vein on day 11 post-tumor-implantation with saline (♦), NVB at 25.5 mg/kg (◯), or NVB-TCS at 15.0 mg/kg (●) and 11.0 mg/kg (▪) at a drug-to-lipid ratio of 0.3:1 (w/w). The arrow on the x-axis denotes the day of drug administration. Data points represent mean±SEM (n=7).
(§4) Vinorelbine is used clinically in the treatment of advanced NSCLC and metastatic breast cancer.
(§5) Tumor models investigated included RXF393 (renal), MX-1 (breast), LX-1 (small cell lung cancer), PC-3 (prostate), and HT29 (colon). These models were known to be sensitive to vinorelbine. Tumor fragments were implanted subcutaneously in the flank of NCr nu/nu mice. […] Animal weights and tumor size were determined twice weekly.

PC3 prostate xenografts = assay: Single dose anti-tumor activity, PC3 prostate xenograft; assay type: in vivo; settings: PC-3
Method: Male NCr nude mice were injected intravenously via the lateral tail vein on day 9 post-tumor-implantation with saline (♦), NVB at 45.0 mg/kg (◯) and 34.0 mg/kg (□), or NVB-TCS at 15.0 mg/kg (●) and 11.0 mg/kg (▪) at a drug-to-lipid ratio of 0.3:1 (w/w). The arrow on the x-axis denotes the day of drug administration. Data points represent mean±SEM (n=10).
as §4, §5

RXF393 renal xenografts = assay: Single dose anti-tumor activity, RXF393 renal xenograft; assay type: in vivo; settings: RXF-393
Method: Male NCr nude mice were injected intravenously via the lateral tail vein on day 7 post-tumor-implantation with saline (♦), NVB at 45.0 mg/kg (◯) and 34.0 mg/kg (□), or NVB-TCS at 15.0 mg/kg (●) and 11.0 mg/kg (▪) at a drug-to-lipid ratio of 0.3:1 (w/w). The arrow on the x-axis denotes the day of drug administration. Data points represent mean±SEM (n=10). […]
as §5

[3] = test system: NCl H460 non small cell lung xenografts; assay: Multiple dose (q7dx3) anti-tumor activity, NCl H460 non small cell lung xenograft
Method: Female NCr nude mice were injected intravenously (q7dx3, beginning day 7) via the lateral tail vein. […] Mitomycin C (⋄) was prepared in saline and injected iv (q4dx3) at a dose of 3 mg/kg/dose. Drug-to-lipid ratio was 0.3/1 (w/w). Data points represent median tumor volume (n=6).
as §1, §2, §3

Structure (SMILES): CCC1=C[C@@H]2CN(C1)Cc1c([nH]c3ccccc13)[C@@](C(=O)OC)(c1cc3c(cc1OC)N(C)[C@H]1[C@@](O)(C(=O)OC)[C@H](OC(C)=O)[C@]4(CC)C=CCN5CC[C@]31[C@@H]54)C2 [VRL, 5′-noranhydrovinblastine]
- % T/C (optimal % T/C following final treatment) (HT29 colon xenografts; 5 mg/kg i.v. q7dx3): 67%
- DRD (drug related deaths, n = 6) (HT29 colon xenografts; 5 mg/kg i.v. q7dx3): 0
- NCI Score (HT29 colon xenografts; 5 mg/kg i.v. q7dx3): 0
- T-C (tumor growth delay to 1000 mm^3) (HT29 colon xenografts; 5 mg/kg i.v. q7dx3): 1.32
- TF (tumor free animals at the end of study) (HT29 colon xenografts; 5 mg/kg i.v. q7dx3): 0
- % T/C (optimal % T/C following final treatment) (HT29 colon xenografts; 10 mg/kg i.v. q7dx3): 5%
- DRD (drug related deaths, n = 6) (HT29 colon xenografts; 10 mg/kg i.v. q7dx3): 0
- NCI Score (HT29 colon xenografts; 10 mg/kg i.v. q7dx3): 1
- T-C (tumor growth delay to 1000 mm^3) (HT29 colon xenografts; 10 mg/kg i.v. q7dx3): 11.9
- TF (tumor free animals at the end of study) (HT29 colon xenografts; 10 mg/kg i.v. q7dx3): 0
- % T/C (optimal % T/C following final treatment) (HT29 colon xenografts; 20 mg/kg i.v. q7dx3): −65%
- DRD (drug related deaths, n = 6) (HT29 colon xenografts; 20 mg/kg i.v. q7dx3): 0
- NCI Score (HT29 colon xenografts; 20 mg/kg i.v. q7dx3): 3
- T-C (tumor growth delay to 1000 mm^3) (HT29 colon xenografts; 20 mg/kg i.v. q7dx3): 29.3
- TF (tumor free animals at the end of study) (HT29 colon xenografts; 20 mg/kg i.v. q7dx3): 1
- DRD ([1]; 5 mg/kg q7d x 3): 0/30
- DRD ([1]; 10 mg/kg q7d x 3): 0/37
- DRD ([1]; 20 mg/kg q7d x 3): 2/37
- DRD ([1]; 25 mg/kg q7d x 3): 0/7
- DRD ([1]; 30 mg/kg q7d x 3): 6/18
- % T/C (optimal % T/C following final treatment) ([2]; single i.v. dose 25.5 mg/kg): 23%
- DRD (drug related deaths) ([2]; single i.v. dose 25.5 mg/kg): 0/6
- NCI Score ([2]; single i.v. dose 25.5 mg/kg): 1
- T-C (tumor growth delay to 1000 mm^3) ([2]; single i.v. dose 25.5 mg/kg): 7
- TF (tumor free animals at the end of study) ([2]; single i.v. dose 25.5 mg/kg): 0/6
- % T/C (optimal % T/C following final treatment) ([2]; single i.v. dose 34 mg/kg): Toxic
- DRD (drug related deaths) ([2]; single i.v. dose 34 mg/kg): 7/7
- % T/C (optimal % T/C following final treatment) ([2]; single i.v. dose 45 mg/kg): Toxic
- DRD (drug related deaths) ([2]; single i.v. dose 45 mg/kg): 7/7
- % T/C (optimal % T/C following final treatment) (PC3 prostate xenografts; single i.v. dose 34 mg/kg): −3%
- DRD (drug related deaths) (PC3 prostate xenografts; single i.v. dose 34 mg/kg): 2/10
- MWL (maximum mean weight loss per treatment group) (PC3 prostate xenografts; single i.v. dose 34 mg/kg): −18.7
- NCI Score (PC3 prostate xenografts; single i.v. dose 34 mg/kg): 2
- T-C (tumor growth delay to 1000 mm^3) (PC3 prostate xenografts; single i.v. dose 34 mg/kg): 34
- TF (tumor free animals at the end of study) (PC3 prostate xenografts; single i.v. dose 34 mg/kg): 1/8
- % T/C (optimal % T/C following final treatment) (PC3 prostate xenografts; single i.v. dose 45 mg/kg): Toxic
- DRD (drug related deaths) (PC3 prostate xenografts; single i.v. dose 45 mg/kg): 5/10
- MWL (maximum mean weight loss per treatment group) (PC3 prostate xenografts; single i.v. dose 45 mg/kg): −25.4
- TF (tumor free animals at the end of study) (PC3 prostate xenografts; single i.v. dose 45 mg/kg): 4/5
- % T/C (optimal % T/C following final treatment) (RXF393 renal xenografts; single i.v. dose 34 mg/kg): −6%
- DRD (drug related deaths) (RXF393 renal xenografts; single i.v. dose 34 mg/kg): 2/10
- MWL (maximum mean weight loss per treatment group) (RXF393 renal xenografts; single i.v. dose 34 mg/kg): −23.1
- NCI Score (RXF393 renal xenografts; single i.v. dose 34 mg/kg): 2
- T-C (tumor growth delay to 1000 mm^3) (RXF393 renal xenografts; single i.v. dose 34 mg/kg): 22
- TF (tumor free animals at the end of study) (RXF393 renal xenografts; single i.v. dose 34 mg/kg): 2/8
- % T/C (optimal % T/C following final treatment) (RXF393 renal xenografts; single i.v. dose 45 mg/kg): Toxic
- DRD (drug related deaths) (RXF393 renal xenografts; single i.v. dose 45 mg/kg): 9/10
- MWL (maximum mean weight loss per treatment group) (RXF393 renal xenografts; single i.v. dose 45 mg/kg): −24.6
- TF (tumor free animals at the end of study) (RXF393 renal xenografts; single i.v. dose 45 mg/kg): 0/1
- % T/C (optimal % T/C following final treatment) ([3]; 5 mg/kg i.v. q7dx3): 63%
- DRD (drug related deaths, n = 6) ([3]; 5 mg/kg i.v. q7dx3): 0
- NCI Score ([3]; 5 mg/kg i.v. q7dx3): 0
- T-C (tumor growth delay to 1000 mm^3) ([3]; 5 mg/kg i.v. q7dx3): 2.8
- TF (tumor free animals at the end of study) ([3]; 5 mg/kg i.v. q7dx3, n=6): 0
- % T/C (optimal % T/C following final treatment) ([3]; 10 mg/kg i.v. q7dx3): 45%
- DRD (drug related deaths, n = 6) ([3]; 10 mg/kg i.v. q7dx3): 0
- NCI Score ([3]; 10 mg/kg i.v. q7dx3): 0
- T-C (tumor growth delay to 1000 mm^3) ([3]; 10 mg/kg i.v. q7dx3): 6.2
- TF (tumor free animals at the end of study) ([3]; 10 mg/kg i.v. q7dx3, n=6): 0
- % T/C (optimal % T/C following final treatment) ([3]; 20 mg/kg i.v. q7dx3): 30%
- DRD (drug related deaths, n = 6) ([3]; 20 mg/kg i.v. q7dx3): 0
- NCI Score ([3]; 20 mg/kg i.v. q7dx3): 1
- T-C (tumor growth delay to 1000 mm^3) ([3]; 20 mg/kg i.v. q7dx3): 9.1
- TF (tumor free animals at the end of study) ([3]; 20 mg/kg i.v. q7dx3, n=6): 0
- % T/C (optimal % T/C following final treatment) ([3]; 30 mg/kg i.v. q7dx3): 10%
- DRD (drug related deaths, n = 6) ([3]; 30 mg/kg i.v. q7dx3): 2
- NCI Score ([3]; 30 mg/kg i.v. q7dx3): 1
- T-C (tumor growth delay to 1000 mm^3) ([3]; 30 mg/kg i.v. q7dx3): 19.1
- TF (tumor free animals at the end of study) ([3]; 30 mg/kg i.v. q7dx3, n=6): 0
